# Test results as given in the NIST ThermoML archive (doi:10.1016/j.fluid.2014.06.021).
# ± gives the expanded uncertainty stated by the source.
# Test: activity coefficient (dimensionless); of the first substance listed, at infinite dilution; xn = mol fraction of the nth substance listed
# Settings: 101.33 kPa, Liquid, Chromatography, x1 = 0
Structure (SMILES),activity coefficient (323.15 K),activity coefficient (333.15 K),activity coefficient (343.15 K)
"Cc1ccccc1C [1,2-dimethylbenzene] + C[n+]1ccn(CCCCS(=O)(=O)O)c1.O=S(=O)([N-]S(=O)(=O)C(F)(F)F)C(F)(F)F",4.39 ± 0.3,4.64 ± 0.32,4.8 ± 0.3
"Cc1ccccc1C [1,2-dimethylbenzene] + C[n+]1ccn(CCCCS(=O)(=O)O)c1.O=S(=O)([O-])C(F)(F)F",8.26 ± 0.56,8.21 ± 0.56,7.97 ± 0.54
"Cc1ccccc1C [1,2-dimethylbenzene] + C[n+]1ccn(CCCCS(=O)(=O)O)c1.O=S(=O)([O-])O",43.8 ± 3,41.3 ± 2.8,40.8 ± 2.8
"Cc1cccc(C)c1 [1,3-dimethylbenzene] + C[n+]1ccn(CCCCS(=O)(=O)O)c1.O=S(=O)([N-]S(=O)(=O)C(F)(F)F)C(F)(F)F",5.19 ± 0.35,5.49 ± 0.37,5.57 ± 0.38
"Cc1cccc(C)c1 [1,3-dimethylbenzene] + C[n+]1ccn(CCCCS(=O)(=O)O)c1.O=S(=O)([O-])C(F)(F)F",10.4 ± 0.71,10.1 ± 0.7,9.84 ± 0.67
"Cc1cccc(C)c1 [1,3-dimethylbenzene] + C[n+]1ccn(CCCCS(=O)(=O)O)c1.O=S(=O)([O-])O",62.8 ± 4.3,55.4 ± 3.8,54.5 ± 3.7
"Cc1ccc(C)cc1 [1,4-dimethylbenzene] + C[n+]1ccn(CCCCS(=O)(=O)O)c1.O=S(=O)([N-]S(=O)(=O)C(F)(F)F)C(F)(F)F",5.11 ± 0.35,5.47 ± 0.37,5.55 ± 0.38
"Cc1ccc(C)cc1 [1,4-dimethylbenzene] + C[n+]1ccn(CCCCS(=O)(=O)O)c1.O=S(=O)([O-])C(F)(F)F",10.1 ± 0.69,9.86 ± 0.67,9.52 ± 0.65
"Cc1ccc(C)cc1 [1,4-dimethylbenzene] + C[n+]1ccn(CCCCS(=O)(=O)O)c1.O=S(=O)([O-])O",56.6 ± 3.9,54.4 ± 3.7,50.6 ± 3.5
C#CCCCCC [1-heptyne] + C[n+]1ccn(CCCCS(=O)(=O)O)c1.O=S(=O)([O-])C(F)(F)F,25.9 ± 1.8,25.7 ± 1.8,24.8 ± 1.7
C#CCCCC [1-hexyne] + C[n+]1ccn(CCCCS(=O)(=O)O)c1.O=S(=O)([O-])C(F)(F)F,15.5 ± 1.1,14.4 ± 0.99,13.5 ± 0.92
CCC[N+](=O)[O-] [1-nitropropane] + C[n+]1ccn(CCCCS(=O)(=O)O)c1.O=S(=O)([N-]S(=O)(=O)C(F)(F)F)C(F)(F)F,1.17 ± 0.07,1.17 ± 0.07,1.18 ± 0.08
CCC[N+](=O)[O-] [1-nitropropane] + C[n+]1ccn(CCCCS(=O)(=O)O)c1.O=S(=O)([O-])C(F)(F)F,1.84 ± 0.12,1.8 ± 0.12,1.77 ± 0.12
CCC[N+](=O)[O-] [1-nitropropane] + C[n+]1ccn(CCCCS(=O)(=O)O)c1.O=S(=O)([O-])O,7.05 ± 0.48,6.92 ± 0.47,6.82 ± 0.46
CC(C)CO [2-methyl-1-propanol] + C[n+]1ccn(CCCCS(=O)(=O)O)c1.O=S(=O)([N-]S(=O)(=O)C(F)(F)F)C(F)(F)F,,0.22 ± 0.03,0.26 ± 0.03
CC#N [acetonitrile] + C[n+]1ccn(CCCCS(=O)(=O)O)c1.O=S(=O)([N-]S(=O)(=O)C(F)(F)F)C(F)(F)F,0.4 ± 0.1,0.42 ± 0.04,0.45 ± 0.04
CC#N [acetonitrile] + C[n+]1ccn(CCCCS(=O)(=O)O)c1.O=S(=O)([O-])C(F)(F)F,0.68 ± 0.05,0.67 ± 0.05,0.68 ± 0.05
CC#N [acetonitrile] + C[n+]1ccn(CCCCS(=O)(=O)O)c1.O=S(=O)([O-])O,1.74 ± 0.12,1.73 ± 0.12,1.73 ± 0.12
c1ccccc1 [benzene] + C[n+]1ccn(CCCCS(=O)(=O)O)c1.O=S(=O)([N-]S(=O)(=O)C(F)(F)F)C(F)(F)F,1.95 ± 0.13,2.07 ± 0.14,2.15 ± 0.15
c1ccccc1 [benzene] + C[n+]1ccn(CCCCS(=O)(=O)O)c1.O=S(=O)([O-])C(F)(F)F,3.36 ± 0.23,3.29 ± 0.22,3.2 ± 0.2
c1ccccc1 [benzene] + C[n+]1ccn(CCCCS(=O)(=O)O)c1.O=S(=O)([O-])O,14.4 ± 0.98,12.5 ± 0.85,12.2 ± 0.83
CCCCO [butan-1-ol] + C[n+]1ccn(CCCCS(=O)(=O)O)c1.O=S(=O)([N-]S(=O)(=O)C(F)(F)F)C(F)(F)F,,0.19 ± 0.03,0.23 ± 0.03
CCC(C)=O [butanone] + C[n+]1ccn(CCCCS(=O)(=O)O)c1.O=S(=O)([N-]S(=O)(=O)C(F)(F)F)C(F)(F)F,0.24 ± 0.03,0.27 ± 0.03,0.3 ± 0.1
CCC(C)=O [butanone] + C[n+]1ccn(CCCCS(=O)(=O)O)c1.O=S(=O)([O-])C(F)(F)F,1.06 ± 0.07,1 ± 0.06,0.96 ± 0.06

Structure (SMILES),activity coefficient (323.15 K),activity coefficient (333.15 K),activity coefficient (343.15 K)
CCC(C)=O [butanone] + C[n+]1ccn(CCCCS(=O)(=O)O)c1.O=S(=O)([O-])O,5.49 ± 0.37,5.17 ± 0.35,4.47 ± 0.3
C1CCCCCC1 [cycloheptane] + C[n+]1ccn(CCCCS(=O)(=O)O)c1.O=S(=O)([N-]S(=O)(=O)C(F)(F)F)C(F)(F)F,92.5 ± 6.4,144 ± 9.9,180 ± 12
C1CCCCCC1 [cycloheptane] + C[n+]1ccn(CCCCS(=O)(=O)O)c1.O=S(=O)([O-])C(F)(F)F,225 ± 15,270 ± 19,287 ± 20
CCCCCCCCCC [decane] + C[n+]1ccn(CCCCS(=O)(=O)O)c1.O=S(=O)([N-]S(=O)(=O)C(F)(F)F)C(F)(F)F,371 ± 26,336 ± 23,281 ± 19
ClCCl [dichloromethane] + C[n+]1ccn(CCCCS(=O)(=O)O)c1.O=S(=O)([N-]S(=O)(=O)C(F)(F)F)C(F)(F)F,1.08 ± 0.07,1.18 ± 0.08,1.28 ± 0.08
ClCCl [dichloromethane] + C[n+]1ccn(CCCCS(=O)(=O)O)c1.O=S(=O)([O-])C(F)(F)F,1.3 ± 0.08,1.46 ± 0.1,1.61 ± 0.11
ClCCl [dichloromethane] + C[n+]1ccn(CCCCS(=O)(=O)O)c1.O=S(=O)([O-])O,3.5 ± 0.24,3.48 ± 0.24,3.37 ± 0.23
CCOCC [diethyl ether] + C[n+]1ccn(CCCCS(=O)(=O)O)c1.O=S(=O)([N-]S(=O)(=O)C(F)(F)F)C(F)(F)F,0.4 ± 0.1,0.53 ± 0.04,0.65 ± 0.04
CCOCC [diethyl ether] + C[n+]1ccn(CCCCS(=O)(=O)O)c1.O=S(=O)([O-])C(F)(F)F,4.51 ± 0.31,4.36 ± 0.3,4.21 ± 0.29
CC(C)OC(C)C [diisopropyl ether] + C[n+]1ccn(CCCCS(=O)(=O)O)c1.O=S(=O)([O-])C(F)(F)F,11.7 ± 0.8,13.3 ± 0.91,14.9 ± 1
CCCCCCCCCCCC [dodecane] + C[n+]1ccn(CCCCS(=O)(=O)O)c1.O=S(=O)([N-]S(=O)(=O)C(F)(F)F)C(F)(F)F,684 ± 47,588 ± 40,557 ± 38
CCCCCCCCCCCC [dodecane] + C[n+]1ccn(CCCCS(=O)(=O)O)c1.O=S(=O)([O-])C(F)(F)F,1490 ± 100,1020 ± 70,997 ± 69
CCCCCCCCCCCC [dodecane] + C[n+]1ccn(CCCCS(=O)(=O)O)c1.O=S(=O)([O-])O,1310 ± 90,1200 ± 82,1140 ± 79
CCO [ethanol] + C[n+]1ccn(CCCCS(=O)(=O)O)c1.O=S(=O)([N-]S(=O)(=O)C(F)(F)F)C(F)(F)F,,0.08 ± 0.03,0.1
CCc1ccccc1 [ethylbenzene] + C[n+]1ccn(CCCCS(=O)(=O)O)c1.O=S(=O)([N-]S(=O)(=O)C(F)(F)F)C(F)(F)F,5.37 ± 0.37,5.79 ± 0.39,5.8 ± 0.4
CCc1ccccc1 [ethylbenzene] + C[n+]1ccn(CCCCS(=O)(=O)O)c1.O=S(=O)([O-])C(F)(F)F,10.8 ± 0.74,10.3 ± 0.7,10.3 ± 0.7
CCc1ccccc1 [ethylbenzene] + C[n+]1ccn(CCCCS(=O)(=O)O)c1.O=S(=O)([O-])O,62.7 ± 4.3,57.6 ± 3.9,54.5 ± 3.7
CO [methanol] + C[n+]1ccn(CCCCS(=O)(=O)O)c1.O=S(=O)([N-]S(=O)(=O)C(F)(F)F)C(F)(F)F,0.06,0.08 ± 0.03,0.09 ± 0.03
C[N+](=O)[O-] [nitromethane] + C[n+]1ccn(CCCCS(=O)(=O)O)c1.O=S(=O)([N-]S(=O)(=O)C(F)(F)F)C(F)(F)F,0.6 ± 0.1,0.6 ± 0.1,0.6 ± 0.1
C[N+](=O)[O-] [nitromethane] + C[n+]1ccn(CCCCS(=O)(=O)O)c1.O=S(=O)([O-])C(F)(F)F,0.72 ± 0.05,0.71 ± 0.05,0.71 ± 0.05
C[N+](=O)[O-] [nitromethane] + C[n+]1ccn(CCCCS(=O)(=O)O)c1.O=S(=O)([O-])O,1.58 ± 0.1,1.59 ± 0.11,1.6 ± 0.11
CCCC(C)=O [pentan-2-one] + C[n+]1ccn(CCCCS(=O)(=O)O)c1.O=S(=O)([N-]S(=O)(=O)C(F)(F)F)C(F)(F)F,0.42 ± 0.04,0.52 ± 0.04,0.64 ± 0.04
CCCC(C)=O [pentan-2-one] + C[n+]1ccn(CCCCS(=O)(=O)O)c1.O=S(=O)([O-])C(F)(F)F,2.11 ± 0.14,2.14 ± 0.15,2.19 ± 0.15
